Consider one molecule from US12679838B2, “Aromatic compound and application thereof in antitumor drug” (Shanghai Zheye Biotechnology Co., Ltd., priority 2020, dated 2026).

Molecules are shown by their SMILES.

Series [1] is described as follows: Preliminary safety test of compounds, 3-day oral gavage. To be noted: mouse, in vivo, Balb/c, tentatively suggested, read-out: maximum tolerated dose. The procedure: Samples for testing: compound 3-2M and compound 3-6M.
Animal species and number: Balb/c; 3 animals per group.
Mode of administration: oral gavage.
Animal grouping and administration dose: solvent blank group and compound 3-2M group (400 mg/kg, 800 mg/kg); compound 3-6M group (400 mg/kg, 800 mg/kg).
Administration frequency: once a day, and administration for 3 days.

Series [2] in a line: Analysis of therapeutic safety window. The following applies: in vivo, oral, 3 days.
The test system of series [3] is Langendorff isolated perfused heart. Briefly: In vitro isolated heart perfusion test (Langendorff). Set-up: species or system Guinea pig. To be noted: 3.3 μM. From the text:
Test method: influences of Langendorff isolated perfused heart test compounds on electrocardiogram, wherein the test method used in this test was as follows: [table] Test compounds: compound 3-2M and the compound in Example 41 of patent WO2018217651A1 (i.e., AMG510).

A further series has as its system NCI-H358. In words: Cell proliferation inhibitory activity of NCI-H358, 3D model test (agarose colony formation). The class given is cell-based. As to the method: 100 μl of high concentration agarose gel was spread in a 96-well plate as a bottom agarose gel layer; low concentration agarose and growth medium containing cells were mixed and spread on the bottom agarose gel layer, cooled and solidified and incubated overnight at 37° C.; a test compound was prepared into a mother liquor with DMSO, diluted with a RPMI 1640 growth medium in a concentration gradient, and the gradient diluted solution of the compound to be tested with different concentrations was added into 96 wells containing upper agarose gel cells, and solvent control wells were set and placed in a carbon dioxide incubator for culture. During the period, the drug-containing medium was changed to observe the cell growth. After the culture, the cells were stained with NBT, the number of colony formation was counted, and the IC50 value of the compound inhibiting cell proliferation was obtained.

Series [4] has as its system MIA-paca-2 cells subcutaneous transplanted tumor. In words: Pharmacodynamic test of CDX model in nude mice. The class given is in vivo. To be noted: 10 mg/kg, QD×15 days. The procedure:
Animal species and number: Balb/c Nude.
Test groups: blank solvent control group; compound 3-2M (10 mg/kg, QD×15 days), and compound 3-6M (10 mg/kg, QD×15 days).
Animal model establishment: MIA-paca-2 cells were cultured in vitro and inoculated subcutaneously on the right side of the back of nude mice, and the tumor-bearing nude mice were randomly grouped. Subsequently, each group of animals was administered and the day of the first administration was defined as day 1 of the test.
(§1) Administration route and frequency: oral gavage; and once a day.
General state observation: observation time and frequency: once a day; observation index or content: including, but not limited to local administration, appearance and signs, general behavioral activities, mental status, death and other abnormal manifestations of the animals. The animals were euthanized at the end of the test.
Tumor volume calculation: V=½×long diameter×short diameter^2 (mm^3). Tumor growth inhibition ratio TGI (%) was used to evaluate the tumor suppressive efficacy of the compounds. TGI (%)=[1-(mean tumor volume at the end of administration of the treatment group−mean tumor volume at the beginning of administration of the treatment group)/(mean tumor volume at the end of administration of the control group−mean tumor volume at the beginning of administration of the control group)]×100%.

The next series has as its system NCI-H358 cells. Briefly: Cell proliferation inhibitory activity, NCI-H358 (CellTiter-Glo). The class given is cell-based. As to the method:
NCI-H358 cells in an exponential growth phase were digested with trypsin-EDTA and plated in a 96-well plate at 2000-3000 cells per well and incubated overnight at 37° C. with 5% CO2. A test compound was prepared as a mother liquor with DMSO, diluted with a RPMI 1640 growth medium in a concentration gradient and added to the 96-well plate and incubated for 72 hours at 37° C. in a 5% CO2 incubator. After incubation, an equal volume of CellTiter-Glo detection reagent was added to each well and incubated after shaking, and a chemiluminescence value was measured by a microplate reader, and the IC50 value for the inhibition of NCI-H358 cell proliferation was fitted and calculated by GraphPad Prism software.
The inhibitory effect of the compounds on the proliferation activity of H358 cells was tested with reference to the method of the biological test 2, and the results were as follows:
The inhibitory effect of the compounds on the proliferation activity of NCI-H358 cells was tested with reference to the method of the biological test 2, and the results were as follows.

For series [5], the system named is NCI-H358 tumor cells xenograft. In words: Pharmacodynamics test of xenograft tumor model of NCI-H358 in nude mice. Type of series: in vivo, Balb/c Nude mice. To be noted: 100 mg/kg. As to the method:
Animal species and number: Balb/c Nude; 6 animals per group.
Samples for testing: compound 3-2M, compound 3-16M, TM-1, TM-3, and AMG510 (obtained by purchasing).
Test groups: blank solvent control group; compound 3-2M (100 mg/kg, QD×15 days), compound 3-16M (100 mg/kg, QD×15 days), TM-1 (100 mg/kg, QD×15 days), TM-3 (100 mg/kg, QD×15 days); and AMG510 (100 mg/kg, QD×15 days).
Animal model establishment: NCI-H358 tumor cells at logarithmic phase were cultured and collected in vitro, and inoculated subcutaneously on the right side of the back of nude mice at a quantity of 5×10^6 cells/each, and the tumor-bearing nude mice were randomly grouped when the tumor volume grew to 150-300 mm^3. Subsequently, each group of animals was administered and the day of the first administration was defined as day 1 of the test.
as §1
General state observation: observation time and frequency: once a day; observation index or content: including, but is not limited to local administration, appearance and signs, general behavioral activities, mental status, death and other abnormal manifestations of the animals. The animals were euthanized at the end of the test.
Tumor volume calculation: V=½×long diameter× short diameter^2 (mm^3). Tumor growth inhibition ratio TGI (%) was used to evaluate the tumor suppressive efficacy of the compounds. TGI (%)=[1-(mean tumor volume at the end of administration of the treatment group−mean tumor volume at the beginning of administration of the treatment group)/(mean tumor volume at the end of administration of the control group−mean tumor volume at the beginning of administration of the control group)]×100%.

In the case of `C=CC(=O)N1CCN(c2nc(=O)n(-c3c(C)ccnc3C(C)C)c3nc(-c4ccccc4C=O)c(Cl)cc23)[C@@H](C)C1` [Compound 3-2M], the MTD at 3 days in series [1] was over 800 mg/kg. Moreover, in series [2], the “therapeutic safety window: ratio of toxic dose to onset dose” value is reported as “greater than 80 times”. For the same molecule, in series [3], the “effect on the heart rate of the isolated heart (in words)” value was “no obvious effect on the heart rate”. Moreover, in series [3] (Guinea pig isolated heart), the “HR (heart rate) change %” value is reported as “A (“A” represents that the heart rate decreases by less than 5%)”. Besides, in the series on NCI-H358, the “cell proliferation inhibitory activity against NCI-H358, 3D model (in words)” value is “significant cell proliferation inhibitory activities”. Moreover, the IC50 in the series on NCI-H358 (Homo sapiens, NCI-H358, agarose gel, colony formation, NBT staining) was 1.8 nM; with NCI-H358 cells (biological test 2, NCI-H358 cells, 72 hours, read-out: Cell proliferation inhibitory activity IC50 value of H358), at most 50 nM. Besides, in series [4], the “inhibition of subcutaneous transplanted tumor growth of pancreatic cancer MIA-paca-2 cells in nude mice (in words)” value was “significant inhibition of subcutaneous transplanted tumor growth”. Also, in series [4], the “toxicity during administration in CDX test (food and water intake, activities, weight)” value is listed as “showed no toxicity”. The “cell proliferation inhibitory activity against H358, R-configuration relative to S-configuration compound (fold)” value with NCI-H358 cells (3-2M versus 3-2P) is “more than five times”. For the same molecule, the “cell proliferation inhibitory activity, R-configuration compared with corresponding S-configuration compound (in words)” value with NCI-H358 cells (H358) is “significantly better than that of the corresponding compound 3-2P”. For the same molecule, the “inhibition of subcutaneous transplanted tumor growth of lung cancer NCI-H358 cells in nude mice (in words)” value in series [5] is listed as “significant inhibitory effects”. For the same molecule, the “Tumor suppression ratio (%)” value in series [5] (NCI-H358 xenograft, QD×15 days, oral gavage) is “++++ (“++++” represents that the tumor suppression ratio is greater than 140%)”.
